Assay results as given in the supplement of paper PMC11451515.

Test system: SEM cells
Test: cell viability relative to DMSO control; higher = less cytotoxic
Conditions: 48 h
In short: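 Three leukemia lines were tested: NOMO1 and SEM at 500 cells/well and P12-Ichikawa at 1000 cells/well. Each was adapted for at least four passages in each medium and seeded in 5 μl in 1536-well plates, and library compounds in DMSO were pin-dosed from 47 μM to 0.79 nM in 11 threefold steps. After 48 h at 37°C, CellTiter-Glo One luminescence was read. Viability is a percentage relative to DMSO wells on each plate, with cell-free wells as background.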

[1] = HPLM + 10% dialyzed FBS, 0.000781 µM
[2] = HPLM + 10% dialyzed FBS, 0.00234 µM
[3] = HPLM + 10% dialyzed FBS, 0.00702 µM
[4] = HPLM + 10% dialyzed FBS, 0.0211 µM
[5] = HPLM + 10% dialyzed FBS, 0.0632 µM
[6] = HPLM + 10% dialyzed FBS, 0.19 µM
[7] = HPLM + 10% dialyzed FBS, 0.569 µM
[8] = HPLM + 10% dialyzed FBS, 1.71 µM
[9] = HPLM + 10% dialyzed FBS, 5.12 µM
[10] = HPLM + 10% dialyzed FBS, 15.4 µM
[11] = HPLM + 10% dialyzed FBS, 46.1 µM
[12] = RPMI 5 mM glucose + 10% FBS, 0.000781 µM
[13] = RPMI 5 mM glucose + 10% FBS, 0.00234 µM
[14] = RPMI 5 mM glucose + 10% FBS, 0.00702 µM
[15] = RPMI 5 mM glucose + 10% FBS, 0.0211 µM
[16] = RPMI 5 mM glucose + 10% FBS, 0.0632 µM
[17] = RPMI 5 mM glucose + 10% FBS, 0.19 µM
[18] = RPMI 5 mM glucose + 10% FBS, 0.569 µM
[19] = RPMI 5 mM glucose + 10% FBS, 1.71 µM
[20] = RPMI 5 mM glucose + 10% FBS, 5.12 µM
[21] = RPMI 5 mM glucose + 10% FBS, 15.4 µM
[22] = RPMI 5 mM glucose + 10% FBS, 46.1 µM
[23] = RPMI 5 mM glucose + 10% dialyzed FBS, 0.000781 µM
[24] = RPMI 5 mM glucose + 10% dialyzed FBS, 0.00234 µM
[25] = RPMI 5 mM glucose + 10% dialyzed FBS, 0.00702 µM
[26] = RPMI 5 mM glucose + 10% dialyzed FBS, 0.0211 µM
[27] = RPMI 5 mM glucose + 10% dialyzed FBS, 0.0632 µM
[28] = RPMI 5 mM glucose + 10% dialyzed FBS, 0.19 µM
[29] = RPMI 5 mM glucose + 10% dialyzed FBS, 0.569 µM
[30] = RPMI 5 mM glucose + 10% dialyzed FBS, 1.71 µM
[31] = RPMI 5 mM glucose + 10% dialyzed FBS, 5.12 µM
[32] = RPMI 5 mM glucose + 10% dialyzed FBS, 15.4 µM
[33] = RPMI 5 mM glucose + 10% dialyzed FBS, 46.1 µM

Structure (SMILES) | cell viability [1] [%] | cell viability [2] [%] | cell viability [3] [%] | cell viability [4] [%] | cell viability [5] [%] | cell viability [6] [%] | cell viability [7] [%] | cell viability [8] [%] | cell viability [9] [%] | cell viability [10] [%] | cell viability [11] [%] | cell viability [12] [%] | cell viability [13] [%] | cell viability [14] [%] | cell viability [15] [%] | cell viability [16] [%] | cell viability [17] [%] | cell viability [18] [%] | cell viability [19] [%] | cell viability [20] [%] | cell viability [21] [%] | cell viability [22] [%] | cell viability [23] [%] | cell viability [24] [%] | cell viability [25] [%] | cell viability [26] [%] | cell viability [27] [%] | cell viability [28] [%] | cell viability [29] [%] | cell viability [30] [%] | cell viability [31] [%] | cell viability [32] [%] | cell viability [33] [%]
C[C@@H](NCc1cc2ccccc2[nH]1)c1cccc2ccccc12 | 80 | 80.5 | 86.2 | 83.3 | 77.7 | 107 | 89.7 | 95.9 | 89.2 | 89.7 | 41.9 | 84.1 | 86.6 | 87.2 | 90.3 | 74.5 | 92.2 | 97.5 | 84.4 | 92.9 | 85.9 | 39.5 | 90 | 84.1 | 86 | 82.9 | 71.7 | 101 | 93.3 | 93 | 93.1 | 85.6 | 57.9
C=C[C@H]1CN2CCC1C[C@@H]2[C@@H](O)c1ccnc2ccccc12 (some centres not stated) | 95.4 | 95.7 | 103 | 112 | 98.5 | 96.1 | 91 | 93.6 | 85.2 | 89.1 | 72.1 | 92 | 105 | 93.2 | 106 | 108 | 104 | 100 | 92.9 | 73.5 | 78.1 | 51.1 | 106 | 100 | 90 | 106 | 102 | 103 | 110 | 94.1 | 87.3 | 86.6 | 64.1
OCCNC1CCCc2c1[nH]c1ccc(-c3ccccc3)cc21 (configuration not stated) | 81.1 | 86.7 | 91.5 | 84.7 | 106 | 101 | 90.2 | 100 | 85.4 | 67.3 | 19.5 | 99.6 | 87.8 | 101 | 109 | 108 | 105 | 88.7 | 91.6 | 74 | 56.1 | 5.82 | 85.6 | 87.9 | 89.7 | 96.1 | 88.7 | 104 | 99 | 94.2 | 94.7 | 68.2 | 22.9
OC(CCN1CCCCC1)(C2CC\3CC2\C=C3)C4=CC=CC=C4 (configuration not stated) | 102 | 110 | 113 | 97.7 | 123 | 120 | 121 | 94.8 | 118 | 129 | 126 | 94.9 | 126 | 115 | 91 | 122 | 119 | 116 | 107 | 123 | 134 | 121 | 104 | 104 | 113 | 70.2 | 129 | 113 | 127 | 120 | 132 | 136 | 131
COc1ccc2c(OCc3nnc4ccc(-c5ccccc5)nn34)ccnc2c1 | 106 | 101 | 101 | 107 | 120 | 92.9 | 107 | 102 | 97.4 | 75.9 | 15.6 | 68.7 | 63.1 | 71.5 | 82.1 | 84 | 78.6 | 105 | 78.2 | 60.8 | 25.6 | 1.49 | 94 | 96.8 | 90.5 | 111 | 115 | 102 | 95.3 | 91.1 | 81 | 63.1 | 3.65
CN1CCN(Cc2ccc(NC(=O)Nc3ccc(Oc4cc(NC(=O)C5CC5)ncn4)cc3)cc2C(F)(F)F)CC1 | 86.5 | 72.2 | 54.1 | 53.4 | 51.4 | 25 | 6.43 | 5.04 | 3.88 | 3.17 | 0.399 | 103 | 80.1 | 53.9 | 49.1 | 41.6 | 23 | 4.1 | 2.81 | 2.25 | 1.45 | 0.371 | 94.9 | 72.4 | 44.6 | 36.5 | 46 | 23.7 | 5.01 | 4.22 | 3.2 | 2.37 | 0.407
C[C@]12CC[C@@H]3c4ccc(O)cc4CC[C@H]3[C@@H]1CC[C@@H]2O | 109 | 110 | 121 | 115 | 98.9 | 119 | 113 | 97.4 | 95.7 | 85.2 | 23.4 | 124 | 124 | 129 | 142 | 125 | 123 | 118 | 114 | 113 | 84 | 21.1 | 127 | 118 | 124 | 144 | 116 | 121 | 114 | 115 | 105 | 82 | 16.5
O=[S+]([O-])(CCSSCC[S+](=O)([O-])[O][Na])[O][Na] | 78.9 | 95.5 | 101 | 65.2 | 120 | 104 | 102 | 103 | 107 | 108 | 118 | 117 | 97.5 | 116 | 73.7 | 115 | 112 | 119 | 103 | 124 | 112 | 111 | 103 | 99.9 | 113 | 72.8 | 134 | 120 | 126 | 120 | 121 | 126 | 139
CCCOc1ccc2[nH]c(NC(=O)OC)nc2c1 | 106 | 99.4 | 97.6 | 82.9 | 42.1 | 25.4 | 23 | 25.8 | 25.7 | 24.6 | 23 | 95.3 | 78.3 | 70 | 60 | 23.6 | 14.1 | 13.2 | 9.52 | 11.6 | 12.1 | 15.1 | 120 | 123 | 94.4 | 80.2 | 45.2 | 20.1 | 22.5 | 15.3 | 17.5 | 20.8 | 18.7
O=[N+]([O-])c1ccc(Nc2ccccc2-c2ccccc2)c2nonc12 | 71.9 | 79.4 | 90.5 | 84.4 | 63.4 | 62 | 68.8 | 62.8 | 78.1 | 48.7 | 26.4 | 93.5 | 91.7 | 100 | 102 | 77.6 | 52.2 | 83.8 | 48.9 | 61.6 | 32.2 | 27 | 72.6 | 70.5 | 80.5 | 90.9 | 58.8 | 62.8 | 64.8 | 30.9 | 54.4 | 42.3 | 26.1
O=C(O)CSCC(=O)NC1CCSC1=O (configuration not stated) | 77.6 | 98.4 | 91.5 | 80.6 | 99.3 | 91.9 | 112 | 102 | 100 | 89.5 | 92.6 | 73.3 | 87.6 | 96.4 | 92.9 | 107 | 113 | 111 | 104 | 101 | 97 | 98.8 | 83.4 | 98.4 | 100 | 100 | 115 | 105 | 107 | 108 | 118 | 104 | 94.9
CN(C)CC[C@H](CSc1ccccc1)Nc1ccc([S+](=O)([O-])NC(=O)c2ccc(N3CCN(Cc4ccccc4-c4ccc(Cl)cc4)CC3)cc2)cc1[N+](=O)[O-] | 116 | 126 | 111 | 82.7 | 64.8 | 23.7 | 10.8 | 8.48 | 6.85 | 6.25 | 3.88 | 103 | 118 | 110 | 102 | 73.8 | 27.7 | 11.1 | 6.52 | 4.95 | 3.98 | 2.62 | 128 | 91.3 | 99.7 | 81.7 | 57.4 | 19.7 | 11.3 | 8.96 | 5.67 | 4.98 | 3.36
O=[S+]([O-])(/N=C/c1c(O)ccc2ccccc12)c1cccs1 | 97 | 114 | 101 | 109 | 110 | 110 | 112 | 66.8 | 104 | 88.3 | 81.9 | 113 | 116 | 108 | 106 | 113 | 120 | 102 | 74.3 | 93.3 | 94.5 | 68.5 | 98.7 | 136 | 109 | 112 | 131 | 118 | 115 | 79.5 | 98.2 | 91.1 | 98.7
CN1C2=CC(=O)/C(=N/NC(N)=O)C=C2CC1S(=O)(=O)[O-].[Na+] (configuration not stated) | 79.9 | 110 | 96.7 | 103 | 103 | 110 | 117 | 105 | 124 | 103 | 115 | 109 | 108 | 114 | 115 | 103 | 115 | 112 | 121 | 128 | 125 | 112 | 95.5 | 109 | 98.5 | 110 | 94.6 | 116 | 126 | 114 | 118 | 117 | 109
